Measurements published in US10590056B2, “ERR modulators and uses thereof” (CITY OF HOPE, priority 2017, dated 2020).
“Also recorded” adds a separate entry of the source.

How the values were obtained:
ER = conditions: % of the affinity of the Z isomer of 4-OHT; cited from earlier work
human ERRβ = biological target: T1, human ERRβ (Homo sapiens, UniProt O95718); assay: GAL4 DBD-ERRβ LBD cotransfection luciferase reporter assay in CV-1 cells; format: cell-based; conditions: for activity on ERRβ, in words: cell-based cotransfection assay; for identified as (inverse agonist class / selectivity): ERRα, ERRβ, ERRγ transactivation panel
T1 construct: expressed in transfected cells; host or cells: CV-1 cells, cytomegalovirus-driven expression vectors
T1 sequence (O95718 208-432 limits assumed): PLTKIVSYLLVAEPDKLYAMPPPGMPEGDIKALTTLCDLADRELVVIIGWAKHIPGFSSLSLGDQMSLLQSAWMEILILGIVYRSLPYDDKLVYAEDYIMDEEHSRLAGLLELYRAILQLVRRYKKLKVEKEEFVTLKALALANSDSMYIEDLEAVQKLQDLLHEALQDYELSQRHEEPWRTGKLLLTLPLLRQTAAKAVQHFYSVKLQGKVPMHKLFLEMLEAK
Experimental: (§1) To assess the functional transcriptional activity of these compounds, cell-based assays using chimeric receptor Gal4 DNA-binding domain (DBD)-NR ligand binding domain cotransfection assay (LBDs of ERRα, ERRγ, and ERRβ) were performed. As an initial screen to determine the ERRγ and ERRβ inhibitory activity and selectivity, all compounds were evaluated for in vitro potency and selectivity by transfection testing, using CV-1 cells transfected with human and mouse ERRs. MH100×4 is a luciferase reporter with four copies of a GAL4 UASG response element, where GAL-I refers to the ligand-binding domain of the indicated receptor fused to the C-terminus of the GAL4 DNA-binding domain. Assays were performed using a Biomek automated workstation in which the genes for the nuclear receptor, as well as a plasmid containing a response element upstream of a luciferase cDNA, are transfected into CV-1 cells. Compounds were evaluated for their ability to inhibit human ERRs at 0.03, 0.1, 0.5, 1, 2.5, 3, and 10 μM test concentrations. […] Z-4-OHT used as a known ERRγ and ERRβ inverse agonist to compare the constitutive activity of unliganded ERRγ and ERRβ.
(§2) Cell culture. CV-1 cells were grown in Dulbecco's modified Eagle's medium supplemented with 10% resin charcoalstripped fetal bovine serum, 50 U/ml penicillin G, and 50 μg/ml streptomycin sulfate (DMEM-FBS) at 37° C. in 5% CO2. One day prior to transfection, cells were plated to 50%-80% confluence using phenol red free DMEM-FBS. The adenoviral construct, Ad-GFP and Ad-ERRα have been described.^55 Propagation of recombinant adenovirus was performed in 293 cells as described.^11
(§3) Cell based transactivation assays were performed in CV-1 cells as described.^49 ERR activity was assayed with a GAL4 reporter construct and fusion proteins containing the ligand binding domains of human ERRα, human ERRβ and mouse ERRγ linked to the DNA binding domain of yeast GAL4. Human ERα and ERβ were examined as full-length proteins using an estrogen receptor responsive reporter construct. Reporter constructs (300 ng/10^5 cells) and cytomegalovirus-driven expression vectors (20-50 ng/10^5 cells) were added as indicated along with CMX-β-gal (500 ng/10^5 cells) as an internal control. Cells were transiently transfected by Lipofectamine as described.^56 Cells were incubated with DNA complexed liposomes for 2 hours and subsequently treated for approximately 45 hr with phenol red free DMEM FBS containing the indicated compounds. After exposure to ligand, the cells were harvested and assayed for luciferase and β-galactosidase activity. […] Fold activation is reported.

mouse ERRγ = biological target: T2, mouse ERRγ (Mus musculus, UniProt P62509); assay: GAL4 DBD-ERRγ LBD cotransfection luciferase reporter assay in CV-1 cells; format: cell-based; conditions: for activity on ERRγ, in words: cell-based cotransfection assay, 1g, 1h: at the higher dose; for IC50: CV-1 cells co-transfected with reporter and expression vectors, mouse ERRγ LBD; for effect on ERRγ transcriptional activity: up to 3 μM
T2 construct: expressed in transfected cells; host or cells: CV-1 cells, cytomegalovirus-driven expression vectors
T2 sequence (P62509 233-457 limits assumed): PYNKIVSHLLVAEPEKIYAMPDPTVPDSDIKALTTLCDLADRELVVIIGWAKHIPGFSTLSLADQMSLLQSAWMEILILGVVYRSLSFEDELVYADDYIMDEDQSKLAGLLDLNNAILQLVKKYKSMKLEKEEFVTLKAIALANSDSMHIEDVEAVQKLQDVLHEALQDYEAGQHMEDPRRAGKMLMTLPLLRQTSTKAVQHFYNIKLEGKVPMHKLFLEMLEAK
Experimental: as §1, §2, §3

human ERRα = biological target: T3, human ERRα (Homo sapiens, UniProt P11474); assay: GAL4 DBD-ERRα LBD cotransfection luciferase reporter assay in CV-1 cells; format: cell-based; conditions: for IC50: CV-1 cells co-transfected with reporter and expression vectors, human ERRα LBD; for activity on ERRα, in words: cell-based screening; for effect on ERRα transcriptional activity: up to 3 μM
T3 construct: expressed in transfected cells; host or cells: CV-1 cells, cytomegalovirus-driven expression vectors
T3 sequence (P11474 193-421 limits assumed): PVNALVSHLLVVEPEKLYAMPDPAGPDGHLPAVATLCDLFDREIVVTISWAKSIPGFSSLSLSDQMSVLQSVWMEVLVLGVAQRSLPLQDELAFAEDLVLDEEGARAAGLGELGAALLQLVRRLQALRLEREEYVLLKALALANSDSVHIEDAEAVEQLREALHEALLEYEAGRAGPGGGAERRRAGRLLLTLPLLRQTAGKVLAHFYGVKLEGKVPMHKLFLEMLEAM
Experimental: as §1, §2, §3

Human ERα = biological target: T4, Human ERα (Homo sapiens, UniProt P03372); assay: Full-length ERα, estrogen receptor responsive reporter assay in CV-1 cells; format: cell-based; conditions: up to 3 μM
T4 construct: Human ERα and ERβ were examined as full-length proteins using an estrogen receptor responsive reporter construct; expressed in transfected cells; host or cells: CV-1 cells, cytomegalovirus-driven expression vectors
T4 sequence (P03372 1-595): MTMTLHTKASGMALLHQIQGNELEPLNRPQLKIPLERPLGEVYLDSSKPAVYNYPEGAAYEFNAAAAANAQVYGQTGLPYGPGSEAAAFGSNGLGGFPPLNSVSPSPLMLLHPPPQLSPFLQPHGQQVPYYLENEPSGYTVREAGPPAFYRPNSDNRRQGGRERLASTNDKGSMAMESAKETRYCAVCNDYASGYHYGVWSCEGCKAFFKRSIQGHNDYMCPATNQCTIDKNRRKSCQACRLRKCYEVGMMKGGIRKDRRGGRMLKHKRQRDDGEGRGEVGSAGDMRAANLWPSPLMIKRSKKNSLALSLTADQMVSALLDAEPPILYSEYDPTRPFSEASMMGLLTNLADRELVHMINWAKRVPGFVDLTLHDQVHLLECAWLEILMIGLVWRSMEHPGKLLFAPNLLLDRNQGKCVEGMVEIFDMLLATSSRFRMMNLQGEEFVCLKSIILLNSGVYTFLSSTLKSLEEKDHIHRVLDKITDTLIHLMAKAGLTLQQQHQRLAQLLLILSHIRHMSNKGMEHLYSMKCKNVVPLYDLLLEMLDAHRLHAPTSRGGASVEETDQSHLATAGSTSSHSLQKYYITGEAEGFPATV
Experimental: (§4) Cell based transactivation assays were performed in CV-1 cells as described.^49 ERR activity was assayed with a GAL4 reporter construct and fusion proteins containing the ligand binding domains of human ERRα, human ERRβ and mouse ERRγ linked to the DNA binding domain of yeast GAL4. Human ERα and ERβ were examined as full-length proteins using an estrogen receptor responsive reporter construct. Reporter constructs (300 ng/10^5 cells) and cytomegalovirus-driven expression vectors (20-50 ng/10^5 cells) were added as indicated along with CMX-β-gal (500 ng/10^5 cells) as an internal control. Cells were transiently transfected by Lipofectamine as described.^56 Cells were incubated with DNA complexed liposomes for 2 hours and subsequently treated for approximately 45 hr with phenol red free DMEM FBS containing the indicated compounds. After exposure to ligand, the cells were harvested and assayed for luciferase and β-galactosidase activity. All points were assayed in triplicate and varied by less than 15%. Each experiment was repeated three or more times with similar results. Fold activation is reported.

Human ERβ = biological target: T5, Human ERβ (Homo sapiens, UniProt Q92731); assay: Full-length ERβ, estrogen receptor responsive reporter assay in CV-1 cells; format: cell-based; conditions: up to 3 μM
T5 construct: Human ERα and ERβ were examined as full-length proteins using an estrogen receptor responsive reporter construct; expressed in transfected cells; host or cells: CV-1 cells, cytomegalovirus-driven expression vectors
T5 sequence (Q92731 whole entry): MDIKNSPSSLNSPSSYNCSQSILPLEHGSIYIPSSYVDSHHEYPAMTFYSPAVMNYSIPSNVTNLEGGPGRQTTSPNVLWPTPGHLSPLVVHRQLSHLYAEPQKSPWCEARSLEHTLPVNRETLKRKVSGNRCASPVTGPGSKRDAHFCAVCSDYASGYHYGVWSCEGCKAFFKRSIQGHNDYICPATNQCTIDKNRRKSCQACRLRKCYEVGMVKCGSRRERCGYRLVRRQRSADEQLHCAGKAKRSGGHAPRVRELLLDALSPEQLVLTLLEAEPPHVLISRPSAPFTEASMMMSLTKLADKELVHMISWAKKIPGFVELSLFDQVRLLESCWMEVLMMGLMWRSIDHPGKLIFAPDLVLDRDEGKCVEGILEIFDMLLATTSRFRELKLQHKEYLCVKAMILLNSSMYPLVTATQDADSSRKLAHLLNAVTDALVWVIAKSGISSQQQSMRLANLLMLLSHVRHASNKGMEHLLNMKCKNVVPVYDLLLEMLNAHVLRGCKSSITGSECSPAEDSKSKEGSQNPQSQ
Experimental: as §4

[1] = CV-1 cells co-transfected with reporter and expression vectors, human ERRβ LBD

Structure (SMILES)	activity on ERRγ, in words (mouse ERRγ)	IC50 (human ERRα) [nM]	IC50 (human ERRβ; [1]) [nM]	identified as (inverse agonist class / selectivity) (human ERRβ)	IC50 (mouse ERRγ) [nM]	further results
CC/C(=C(/c1ccc(O)cc1)c1ccc(OCCN(C)C)cc1)c1ccccc1 [Compound E-4-OHT, reference compound]	much less active					affinity for the ER relative to the Z isomer (ER): about 5%; activity on ERRβ, in words (human ERRβ): much less active
COC(=O)C(C)CC(=C(c1ccc(O)cc1)c1ccc(O)cc1)c1ccccc1 (stereo not shown) [Compound 1h, 5,5-Bis (4-hydroxyphenyl)-2-methyl-4-phenyl-pent-4-enoic acid methyl ester]	not active	> 10000	300	selective inverse agonists for the ERRβ	5500	activity on ERRα, in words (human ERRα): not active
CC(CO)C/C(=C(\c1ccc(O)cc1)c1ccc(OCCN(C)C)cc1)c1ccccc1 (stereo not shown) [Compound 3n, (Z)-4-{1-[4-(2-Dimethylamino-ethoxy)-phenyl]-5-hydroxy-4-methyl-2-phenyl-pent-1-enyl}-phenol]		> 10000	2250	ERRβ and ERRγ inverse agonists	2500	
COC(=O)C(C)C/C(=C(\c1ccc(O)cc1)c1ccc(OCCN(C)C)cc1)c1ccccc1 (stereo not shown) [Compound 3h, (Z)-5-[4-(2-Dimethylamino-ethoxy)-phenyl]-5-(4-hydroxyphenyl)-2-methyl-4-phenyl-pent-4-enoic acid methyl ester]		> 10000		selective inverse agonist for the ERRβ; also recorded: ERRβ inverse agonists	2780	effect on ERα transcriptional activity (Human ERα): no effect; effect on ERRα transcriptional activity (human ERRα): no effect; effect on ERβ transcriptional activity (Human ERβ): no effect; IC50 (human ERRβ; cell-based transactivation in CV-1 cells): 50 nM; effect on ERRγ transcriptional activity (mouse ERRγ): no effect
CC/C(=C(\c1ccc(O)cc1)c1ccc(OCCN(C)C)cc1)c1ccccc1 [Compound Z-4-OHT, reference compound]	has the required activity; also recorded: more potent than E-4-OHT	> 10000	650		600	activity on ERRβ, in words (human ERRβ): has the required activity; also recorded: more potent than E-4-OHT
CC(C)/C(=C(\c1ccc(O)cc1)c1ccc(OCCN(C)C)cc1)c1ccccc1 [Compound 3a, (Z)-4-[1-(4-Dimethylaminoethoxy-phenyl)-3-methyl-2-phenyl-but-1-enyl]-phenol]		> 10000	210	ERRβ and ERRγ inverse agonists	290	fold greater potency than Z-4-OHT on ERRβ (human ERRβ; compared to Z-4-OHT): 3 fold; fold greater potency than Z-4-OHT on ERRγ (mouse ERRγ; compared to Z-4-OHT): 3 fold
COC(=O)CC/C(=C(\c1ccc(O)cc1)c1ccc(OCCN(C)C)cc1)c1ccccc1 [Compound 3g, (Z)-5-[4-(2-Dimethylamino-ethoxy)-phenyl]-5-(4-hydroxyphenyl)-4-phenyl-pent-4-enoic acid methyl ester]		> 10000	350		3500	effect on ERα transcriptional activity (Human ERα): no effect; effect on ERRα transcriptional activity (human ERRα): no effect; effect on ERβ transcriptional activity (Human ERβ): no effect; effect on ERRγ transcriptional activity (mouse ERRγ): no effect
COC(=O)CCC(=C(c1ccc(O)cc1)c1ccc(O)cc1)c1ccccc1 [Compound 1g, 5,5-Bis (4-hydroxyphenyl)-4-phenyl-pent-4-enoic acid methyl ester]	not active	> 10000	600	selective inverse agonists for the ERRβ	6500	activity on ERRα, in words (human ERRα): not active
CCCC(=C(c1ccc(O)cc1)c1ccc(O)cc1)c1ccccc1 [Compound 1b, 1,1-Bis (4-hydroxyphenyl)-2-phenylpent-1-ene]						melting point: 192.7 °C
